According to patent US20260226493A1, “HERBICIDE RESISTANT PLANTS” (SYNGENTA CROP PROTECTION AG, priority 2023, published 2026):

Assays:
[1] = system: Arabidopsis thaliana BIO3-BIO1 (BioDA) mutants; assay: BIO3-BIO1 mutant enzyme activity in the presence of herbicide, percentage inhibition (fluorometric DAPA assay); assay type: biochemical
Outline: (§1)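 Percentage inhibition compares activity at one of three herbicide concentrations against DMSO, from o-phthalaldehyde-derivatised DAPA fluorescence (ex 410, em 470 nm). Purified N-His BIO3-BIO1 variants (50 nM, E. coli-expressed) saw herbicide 10 min at 20 °C in pH 8.6 EPPS buffer, then 20 μM KAPA plus 100 μM spermidine for 75 min at 20 °C.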

[2] = target: T1, Arabidopsis thaliana BIO3-BIO1 (BioDA) mutants (Arabidopsis thaliana, UniProt B0F481); assay: as above; assay type: biochemical
T1 construct: with the predicted N-terminal mitochondrial transit peptide removed; 6xHis-tag (N); thrombin cleavage site (N); made in house; host or cells: E. coli BL21 (DE3) bioA
Outline: as §1

[3] = read-out: percentage inhibition

T1 sequence (B0F481 23-833, change not shown): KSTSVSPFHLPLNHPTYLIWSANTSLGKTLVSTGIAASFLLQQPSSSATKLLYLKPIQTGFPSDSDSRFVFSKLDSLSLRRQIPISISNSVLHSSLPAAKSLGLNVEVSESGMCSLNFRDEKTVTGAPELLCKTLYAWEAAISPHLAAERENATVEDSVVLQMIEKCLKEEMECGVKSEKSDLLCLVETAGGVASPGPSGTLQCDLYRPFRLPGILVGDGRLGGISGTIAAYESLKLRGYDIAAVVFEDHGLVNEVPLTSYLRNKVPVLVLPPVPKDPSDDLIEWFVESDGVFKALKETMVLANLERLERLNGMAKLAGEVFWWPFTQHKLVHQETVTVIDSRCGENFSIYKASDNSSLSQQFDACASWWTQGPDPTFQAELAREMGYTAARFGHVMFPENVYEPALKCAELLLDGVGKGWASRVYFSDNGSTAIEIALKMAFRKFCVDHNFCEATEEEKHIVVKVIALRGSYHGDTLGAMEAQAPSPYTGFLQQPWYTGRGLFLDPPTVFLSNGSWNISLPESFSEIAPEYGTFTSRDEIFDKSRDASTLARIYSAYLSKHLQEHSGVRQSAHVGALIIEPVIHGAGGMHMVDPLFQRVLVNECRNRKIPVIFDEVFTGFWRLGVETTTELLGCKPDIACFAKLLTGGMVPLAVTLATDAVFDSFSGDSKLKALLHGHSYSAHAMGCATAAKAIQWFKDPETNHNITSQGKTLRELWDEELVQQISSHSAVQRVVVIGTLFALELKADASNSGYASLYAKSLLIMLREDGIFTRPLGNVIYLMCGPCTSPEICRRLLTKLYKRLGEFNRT

For `CCOC(=O)c1nn(-c2ccc3c(c2)OC(F)(F)C(F)(F)O3)c2cccc(C(C)=O)c2c1=O` [Compound A, ethyl 5-acetyl-4-oxo-1-(2,2,3,3-tetrafluoro-1,4-benzodioxin-6-yl)cinnoline-3-carboxylate], which percentage inhibition ([1]; variant Q517M, 1 μM) is on record?
Its percentage inhibition is 38%.

What about the percentage inhibition ([1]; variant W392A, 1 μM) of the same molecule?
Its percentage inhibition is 53%.

What does the source list for `CCn1c(Cn2ccc(C(F)(F)F)n2)cc(=O)c(C(=O)O)c1-c1ccc(Cl)c(Cl)c1` [Compound L, 2-(3,4-dichlorophenyl)-1-ethyl-4-oxo-6-[[3-(trifluoromethyl)pyrazol-1-yl]methyl]pyridine-3-carboxylic acid]?
percentage inhibition ([1]; variant Q517F, 0.01 μM): 0%; percentage inhibition ([1]; variant Q517F, 0.075 μM): 17%; percentage inhibition ([1]; variant Q517F, 0.5 μM): 54%; percentage inhibition ([1]; variant Q517H, 0.01 μM): 0%; percentage inhibition ([1]; variant T393V, 0.01 μM): 9%; percentage inhibition ([1]; variant T393V, 0.075 μM): 19%; percentage inhibition ([1]; variant T393V, 0.5 μM): 65%; percentage inhibition ([1]; variant T512C, 0.01 μM): 0%; percentage inhibition ([1]; variant T512C, 0.075 μM): 18%; percentage inhibition ([1]; variant T512C, 0.5 μM): 69%; percentage inhibition ([1]; variant T512D, 0.01 μM): 24%; percentage inhibition ([1]; variant T512D, 0.075 μM): 23%; percentage inhibition ([1]; variant T512D, 0.5 μM): 58%; percentage inhibition ([1]; variant T512G, 0.01 μM): 0%; percentage inhibition ([1]; variant T512G, 0.075 μM): 0%; percentage inhibition ([1]; variant T512G, 0.5 μM): 20%; percentage inhibition ([1]; variant T512I, 0.01 μM): 2%; percentage inhibition ([1]; variant T512I, 0.075 μM): 15%; percentage inhibition ([1]; variant T512I, 0.5 μM): 29%; percentage inhibition ([1]; variant T512N, 0.01 μM): 15%; percentage inhibition ([1]; variant T512N, 0.075 μM): 37%; percentage inhibition ([1]; variant T512N, 0.5 μM): 76%; percentage inhibition ([1]; variant T512Q, 0.01 μM): 3%; percentage inhibition ([1]; variant T512Q, 0.075 μM): 35%; percentage inhibition ([1]; variant T512Q, 0.5 μM): 74%; percentage inhibition ([1]; variant T512R, 0.01 μM): 27%; percentage inhibition ([1]; variant T512R, 0.075 μM): 61%; percentage inhibition ([1]; variant T512R, 0.5 μM): 91%; percentage inhibition ([1]; variant T512V, 0.01 μM): 33%; percentage inhibition ([1]; variant T512V, 0.075 μM): 57%; percentage inhibition ([1]; variant T512V, 0.5 μM): 83%; percentage inhibition ([1]; variant T512W, 0.01 μM): 18%; percentage inhibition ([1]; variant T512W, 0.075 μM): 0%; percentage inhibition ([1]; variant T512W, 0.5 μM): 31%; percentage inhibition ([1]; variant V354A, 0.01 μM): 6%; percentage inhibition ([1]; variant V354A, 0.075 μM): 0%; percentage inhibition ([1]; variant V354A, 0.5 μM): 47%; percentage inhibition ([1]; variant V354E, 0.01 μM): 4%; percentage inhibition ([1]; variant V354E, 0.075 μM): 19%; percentage inhibition ([1]; variant V354E, 0.5 μM): 35%; percentage inhibition ([1]; variant V354L, 0.01 μM): 0%; percentage inhibition ([1]; variant V354L, 0.075 μM): 16%; percentage inhibition ([1]; variant V354L, 0.5 μM): 63%; percentage inhibition ([1]; variant V354T, 0.01 μM): 0%; percentage inhibition ([1]; variant V354T, 0.075 μM): 7%; percentage inhibition ([1]; variant V354T, 0.5 μM): 89%; percentage inhibition ([1]; variant W391L, 0.01 μM): 24%; percentage inhibition ([1]; variant W391L, 0.075 μM): 10%; percentage inhibition ([1]; variant W391L, 0.5 μM): 16%; percentage inhibition ([1]; variant W391M, 0.01 μM): 0%; percentage inhibition ([1]; variant W391M, 0.075 μM): 16%; percentage inhibition ([1]; variant W391M, 0.5 μM): 30%; percentage inhibition ([1]; variant W392C, 0.01 μM): 2%; percentage inhibition ([1]; variant W392C, 0.075 μM): 12%; percentage inhibition ([1]; variant W392C, 0.5 μM): 13%; percentage inhibition ([1]; variant W392D, 0.01 μM): 19%; percentage inhibition ([1]; variant W392D, 0.075 μM): 59%; percentage inhibition ([1]; variant W392D, 0.5 μM): 85%; percentage inhibition ([1]; variant W392G, 0.01 μM): 0%; percentage inhibition ([1]; variant W392G, 0.075 μM): 2%; percentage inhibition ([1]; variant W392G, 0.5 μM): 0%; percentage inhibition ([1]; variant W392M, 0.01 μM): 0%; percentage inhibition ([1]; variant W392M, 0.075 μM): 10%; percentage inhibition ([1]; variant W392M, 0.5 μM): 8%; percentage inhibition ([1]; variant W392S, 0.01 μM): 0%; percentage inhibition ([1]; variant W392S, 0.075 μM): 3%; percentage inhibition ([1]; variant W392S, 0.5 μM): 0%; percentage inhibition ([1]; variant Y511C, 0.01 μM): 0%; percentage inhibition ([1]; variant Y511C, 0.075 μM): 3%; percentage inhibition ([1]; variant Y511C, 0.5 μM): 44%; percentage inhibition ([1]; variant Y511D, 0.01 μM): 20%; percentage inhibition ([1]; variant Y511D, 0.075 μM): 29%; percentage inhibition ([1]; variant Y511D, 0.5 μM): 51%; percentage inhibition ([1]; variant Y511E, 0.01 μM): 0%; percentage inhibition ([1]; variant Y511E, 0.075 μM): 0%; percentage inhibition ([1]; variant Y511E, 0.5 μM): 33%; percentage inhibition ([1]; variant Y511F, 0.01 μM): 48%; percentage inhibition ([1]; variant Y511F, 0.075 μM): 65%; percentage inhibition ([1]; variant Y511F, 0.5 μM): 86%; percentage inhibition ([1]; variant Y511I, 0.01 μM): 21%; percentage inhibition ([1]; variant Y511I, 0.075 μM): 27%; percentage inhibition ([1]; variant Y511I, 0.5 μM): 28%; percentage inhibition ([1]; variant Y511M, 0.01 μM): 0%; percentage inhibition ([1]; variant Y511M, 0.075 μM): 27%; percentage inhibition ([1]; variant Y511M, 0.5 μM): 76%; percentage inhibition ([1]; variant Y511P, 0.01 μM): 10%; percentage inhibition ([1]; variant Y511P, 0.075 μM): 26%; percentage inhibition ([1]; variant Y511P, 0.5 μM): 63%; percentage inhibition ([1]; variant Y511Q, 0.01 μM): 0%; percentage inhibition ([1]; variant Y511Q, 0.075 μM): 6%; percentage inhibition ([1]; variant Y511Q, 0.5 μM): 28%; percentage inhibition ([1]; variant Y511R, 0.01 μM): 15%; percentage inhibition ([1]; variant Y511R, 0.075 μM): 7%; percentage inhibition ([1]; variant Y511R, 0.5 μM): 34%; percentage inhibition ([1]; variant Y511V, 0.01 μM): 0%; percentage inhibition ([1]; variant Y511V, 0.075 μM): 5%; percentage inhibition ([1]; variant Y511V, 0.5 μM): 49%; percentage inhibition ([1]; variant Y511W, 0.01 μM): 11%; percentage inhibition ([1]; variant Y511W, 0.075 μM): 22%; percentage inhibition ([1]; variant Y511W, 0.5 μM): 50%; inhibition at 0.01 µM [2, 3]: 6%; inhibition at 0.075 µM [2, 3]: 44%; inhibition at 0.5 µM [2, 3]: 83%

Which percentage inhibition ([2]; WT (SEQ ID NO 294), 0.1 μM herbicide) does the source give for `CCn1c(-c2ccc(Cl)c(Cl)c2)c(C(=O)O)c(=O)c2cc(F)ccc21` [Compound M, 2-(3,4-dichlorophenyl)-1-ethyl-6-fluoro-4-oxo-quinoline-3-carboxylic acid] here?
The percentage inhibition was 23%.

And the inhibition at 0.2 µM [2, 3]?
Its inhibition at 0.2 µM is 23%.
